PubChem BioAssay AID330 (DTP/NCI, 2004)
“And” between values parts separate entries of the source, which are not always exact repeats. Equal values may be shown once. Toxic doses and inconclusive results are not listed.

Tested on: P388 leukemia ip, CD2F1 mice, survival T/C
Assay: NCI In Vivo Anticancer Drug Screen. Data for tumor model P388 Leukemia (intraperitoneal) in CD2F1 (CDF1) mice
Details: endpoint: median survival time, higher = longer survival
Summary of the method: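 Mice carrying the transplanted tumor received test compound or vehicle. Survival was recorded in each group, and the value is the treated-group measurement divided by that of the vehicle-treated control group.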

[1] = dose: 25.0 mg/kg/injection, schedule: Q01DX009 (ip), vehicle: Klucel (hydroxypropylcellulose) (HPC)
[2] = dose: 50.0 mg/kg/injection, schedule: Q01DX009 (ip), vehicle: Klucel (hydroxypropylcellulose) (HPC)
[3] = dose: 100.0 mg/kg/injection, schedule: Q01DX009 (ip), vehicle: Klucel (hydroxypropylcellulose) (HPC)
[4] = dose: 200.0 mg/kg/injection, schedule: Q01DX009 (ip), vehicle: Klucel (hydroxypropylcellulose) (HPC)
[5] = dose: 100.0 mg/kg/injection, schedule: Q01DX001 (ip), vehicle: Klucel (hydroxypropylcellulose) (HPC)
[6] = dose: 200.0 mg/kg/injection, schedule: Q01DX001 (ip), vehicle: Klucel (hydroxypropylcellulose) (HPC)
[7] = dose: 50.0 mg/kg/injection, schedule: Q01DX005 (ip), vehicle: saline with Tween-80
[8] = dose: 100.0 mg/kg/injection, schedule: Q01DX005 (ip), vehicle: saline with Tween-80

CCC/C=C1/OC(=O)C2=C[C@H]3CC[C@]21[C@]1(OC(=O)C2=C1CCC=C2)[C@H]3CCC
T/C (dose: 7.0 mg/kg/injection, schedule: Q01DX005 (ip), vehicle: Klucel (hydroxypropylcellulose) (HPC)): 104 % of control | T/C (dose: 14.0 mg/kg/injection, schedule: Q01DX005 (ip), vehicle: Klucel (hydroxypropylcellulose) (HPC)): 100 % of control | T/C (dose: 28.0 mg/kg/injection, schedule: Q01DX005 (ip), vehicle: Klucel (hydroxypropylcellulose) (HPC)): 106 % of control | T/C (dose: 56.0 mg/kg/injection, schedule: Q01DX005 (ip), vehicle: Klucel (hydroxypropylcellulose) (HPC)): 97 % of control

NC(=O)c1ncn(C2OC(CO)C(O)C2O)c1O (stereo not drawn)
T/C (dose: 12.5 mg/kg/injection, schedule: Q01DX009 (ip), vehicle: Klucel (hydroxypropylcellulose) (HPC)): 107 % of control | T/C [1]: 113 % of control | T/C [2]: 115 % of control | T/C [3]: 113 % of control | T/C [4]: 96 % of control

Nc1ncnc2c1ncn2C1OC(CO)CC1O (stereo not drawn)
T/C (dose: 9.37 mg/kg/injection, schedule: Q01DX009 (ip), vehicle: Klucel (hydroxypropylcellulose) (HPC)): 109 % of control | T/C (dose: 18.75 mg/kg/injection, schedule: Q01DX009 (ip), vehicle: Klucel (hydroxypropylcellulose) (HPC)): 104 % of control | T/C (dose: 37.5 mg/kg/injection, schedule: Q01DX009 (ip), vehicle: Klucel (hydroxypropylcellulose) (HPC)): 110 % of control | T/C (dose: 75.0 mg/kg/injection, schedule: Q01DX009 (ip), vehicle: Klucel (hydroxypropylcellulose) (HPC)): 112 % of control

COc1cc(C=O)cc(Br)c1O
T/C [1]: 108 % of control | T/C [2]: 108 % of control | T/C [3]: 108 % of control | T/C [4]: 105 % of control

CC(C)(Nc1ccccc1)c1cccs1
T/C (dose: 100.0 mg/kg/injection, schedule: Q01DX009 (ip), vehicle: saline with Tween-80): 109 % of control | T/C (dose: 200.0 mg/kg/injection, schedule: Q01DX009 (ip), vehicle: saline with Tween-80): 109 % of control | T/C (dose: 400.0 mg/kg/injection, schedule: Q01DX009 (ip), vehicle: saline with Tween-80): 95 % of control

Cc1nnc2sc(C(F)(F)F)nn12
T/C (dose: 50.0 mg/kg/injection, schedule: Q01DX001 (ip), vehicle: Klucel (hydroxypropylcellulose) (HPC)): 99 % of control | T/C [5]: 98 % of control | T/C [6]: 101 % of control

Clc1cccc2nncn12
T/C (dose: 50.0 mg/kg/injection, schedule: Q01DX001 (ip), vehicle: saline): 98 % of control | T/C (dose: 100.0 mg/kg/injection, schedule: Q01DX001 (ip), vehicle: saline): 102 % of control | T/C (dose: 200.0 mg/kg/injection, schedule: Q01DX001 (ip), vehicle: saline): 100 % of control

CC(=O)CC(=O)c1c(-c2ccccc2)n(C)c2ccccc12
T/C [5]: 98 % of control | T/C [6]: 101 % of control | T/C (dose: 400.0 mg/kg/injection, schedule: Q01DX001 (ip), vehicle: Klucel (hydroxypropylcellulose) (HPC)): 102 % of control

Cc1ccc(C(=O)CC(O)(C(F)(F)F)C(F)(F)F)cc1
T/C (dose: 100.0 mg/kg/injection, schedule: Q04DX003 (ip), vehicle: other): 100 % of control | T/C (dose: 200.0 mg/kg/injection, schedule: Q04DX003 (ip), vehicle: other): 118 % of control | T/C (dose: 400.0 mg/kg/injection, schedule: Q04DX003 (ip), vehicle: other): 122 % of control

C(#Cc1ccncc1)c1ccncc1
T/C [7]: 100 % of control | T/C [8]: 98 % of control

O=C(CC1(O)C(=O)Nc2ccccc21)c1cccc2ccccc12 (stereo not drawn)
T/C (dose: 60.0 mg/kg/injection, schedule: Q01DX005 (ip), vehicle: saline with Tween-80): 110 % of control | T/C (dose: 120.0 mg/kg/injection, schedule: Q01DX005 (ip), vehicle: saline with Tween-80): 113 % of control | T/C (dose: 240.0 mg/kg/injection, schedule: Q01DX005 (ip), vehicle: saline with Tween-80): 103 % of control

CCOc1cc(C=Nc2cc(Cl)c(O)c(Cl)c2)ccc1N(CCCl)CCCl
T/C (dose: 3.13 mg/kg/injection, schedule: Q04DX003 (ip), vehicle: saline with Tween-80): 122 % of control | T/C (dose: 12.5 mg/kg/injection, schedule: Q01DX009 (ip), vehicle: saline with Tween-80): 218 % of control | T/C (dose: 12.5 mg/kg/injection, schedule: Q04DX003 (ip), vehicle: saline with Tween-80): 168 % of control | T/C (dose: 16.5 mg/kg/injection, schedule: Q04DX003 (ip), vehicle: saline with Tween-80): 171 % of control | T/C (dose: 25.0 mg/kg/injection, schedule: Q01DX009 (ip), vehicle: saline with Tween-80): 150 % of control | T/C (dose: 25.0 mg/kg/injection, schedule: Q04DX003 (ip), vehicle: saline with Tween-80): 185 % of control and 200 % of control | T/C (dose: 37.5 mg/kg/injection, schedule: Q04DX003 (ip), vehicle: saline with Tween-80): 204 % of control | T/C (dose: 50.0 mg/kg/injection, schedule: Q04DX003 (ip), vehicle: saline with Tween-80): 90 % of control

O=C(Nc1nc(-c2ccccc2)cs1)OCC(Cl)(Cl)Cl
T/C [7]: 93 % of control | T/C [8]: 91 % of control | T/C (dose: 200.0 mg/kg/injection, schedule: Q01DX005 (ip), vehicle: saline with Tween-80): 96 % of control
